Source: PMC11130353, “Using host-mimicking conditions and a murine cutaneous abscess model to identify synergistic antibiotic combinations effective against Pseudomonas aeruginosa” (Frontiers in Cellular and Infection Microbiology, 2024)
Values after ≈ are worked out from the molar mass of the structure shown. Like-named read-outs stand apart in the source and are kept apart here.

Experiments:
P. aeruginosa LESB58-lux = assay: In vitro synergy, checkerboard assay (luminescence readout); assay type: cell-based, Pseudomonas aeruginosa; settings: TCM, LESB58-lux
Method: (§1) For susceptibility testing under standard conditions, bacteria were cultured in Muller Hinton Broth MHB (Fort Richards Laboratories). Host mimicking conditions in vitro were simulated using tissue culture medium (TCM) consisting of Dulbecco’s modified Eagle medium (DMEM; Gibco #11965) supplemented with FBS (Moregate Biotech) (5% v/v) and glucose (1% w/v). Further susceptibility testing was also conducted in MHB supplemented with FBS (5% v/v) and DMEM supplemented with glucose (1% w/v) and MHB (10% v/v).
The P. aeruginosa LESB58.lux strain was used for in vitro synergy experiments with azithromycin in MHB and all antibiotic combinations in TCM to determine bacterial growth (as visual inspection and absorbance measurements were unreliable). Synergy was determined using the checkerboard method ([Berenbaum, 1978]; [Pletzer and Hancock, 2018]) in at least triplicate. Each antibiotic was two-fold serially diluted in sterile water before transferring to a 96-well plate containing 1 × 10^6 CFU mL^-1 bacteria in MHB or TCM. Plates were incubated at 37°C for 22-24 hours. The MIC alone or in combination was recorded as the lowest antibiotic concentration with no visible growth. For experiments using the LESB58.lux strain no visible growth was defined as an at least 95% reduction compared to the no antibiotic growth control in luminescence detected using a ClarioStar plate reader. The fractional inhibitory concentration index (FICI) was calculated as [(MICA in combination)/MICA] + [(MICB in combination)/MICB]. FICI values of 0.5 or below indicated synergy, while values above 0.5 up to and including 1 were taken to indicate additivity. FICI values above 1 indicate indifference or antagonism ([Odds, 2003]).

P. aeruginosa LESB58 [1] = assay: Minimum bactericidal concentration; assay type: cell-based; settings: Pseudomonas aeruginosa
Method: as §1
The minimum bactericidal concentration (MBC) was determined by spotting 5 μL from wells of the MIC plate at or above the MIC onto antibiotic free dYT agar. Plates were incubated at 37°C for another 22-24 hours. The MBC was recorded as the lowest antibiotic concentration with no visible growth on agar plates and the median value reported.

[2] = female, Swiss Webster, mouse, in vivo, sc, 1 day
Method: Mice used in this study were female Swiss Webster aged approximately 6-7 weeks and sourced from the University of Otago Biomedical Research Facility. […] Briefly, the fur on the back of each mouse was removed by shaving and chemical depilation. Antibiotics were tested for skin toxicity by injecting 50 μL of antibiotic suspension subcutaneously into naïve mice, and subsequent inspection of the skin for inflammation on the next day. P. aeruginosa LESB58 was grown to mid-log phase in dYT broth, washed twice in sterile PBS (Gibco, pH 7.4), and resuspended in PBS to ~1 x 10^8 CFU per 50 μL inoculum. The bacterial suspension (50 μL) was injected subcutaneously into the right side of the dorsum, followed one hour later by 50 μL of antibiotic treatment injected directly into the infected area. […] Combination treatments were administered as a single 50 μL injection containing both antibiotics. The concentration of each antibiotic in the combination was the same as when it was used alone. Progression of the infection was monitored daily, and abscess dimensions were measured on day three using a calliper. On day three, abscess tissue and pus were excised, homogenized in sterile PBS using SPEX SamplePrep 1600 MiniG for five minutes and bacterial CFU counts determined by serial dilution.

P. aeruginosa LESB58 [3] = assay: microbe, parasite or virus in culture; assay type: cell-based, Pseudomonas aeruginosa; settings: for MIC in MHB / MIC in TCM: 20-24 h; for MIC: Pseudomonas aeruginosa; for MIC in TCM: TCM (DMEM + 1% glucose + 5% FBS)
Method: (§2) For susceptibility testing under standard conditions, bacteria were cultured in Muller Hinton Broth MHB (Fort Richards Laboratories). […] Further susceptibility testing was also conducted in MHB supplemented with FBS (5% v/v) and DMEM supplemented with glucose (1% w/v) and MHB (10% v/v).
The minimum inhibitory concentration (MIC) of each antibiotic was determined using the broth microdilution method in 96-well plates. […] Briefly, antibiotics were two-fold serially diluted in MHB or TCM prior to adding 1 × 10^6 CFU mL^-1 bacteria. […] The MIC was recorded as the lowest antibiotic concentration with no visible growth and the median value of at least three biological replicates reported.

P. aeruginosa LESB58 [4] = assay: Murine high density subcutaneous skin abscess model; assay type: in vivo, Pseudomonas aeruginosa; settings: day 3; for Area of dermoncecrosis, Mean: female Swiss Webster mice
Method: Mice used in this study were female Swiss Webster aged approximately 6-7 weeks and sourced from the University of Otago Biomedical Research Facility. […] The subcutaneous abscess infection model was performed as previously described ([Pletzer et al., 2017]) with a higher inoculum. Briefly, the fur on the back of each mouse was removed by shaving and chemical depilation. Antibiotics were tested for skin toxicity by injecting 50 μL of antibiotic suspension subcutaneously into naïve mice, and subsequent inspection of the skin for inflammation on the next day. P. aeruginosa LESB58 was grown to mid-log phase in dYT broth, washed twice in sterile PBS (Gibco, pH 7.4), and resuspended in PBS to ~1 x 10^8 CFU per 50 μL inoculum. The bacterial suspension (50 μL) was injected subcutaneously into the right side of the dorsum, followed one hour later by 50 μL of antibiotic treatment injected directly into the infected area. […] Combination treatments were administered as a single 50 μL injection containing both antibiotics. The concentration of each antibiotic in the combination was the same as when it was used alone. Progression of the infection was monitored daily, and abscess dimensions were measured on day three using a calliper. On day three, abscess tissue and pus were excised, homogenized in sterile PBS using SPEX SamplePrep 1600 MiniG for five minutes and bacterial CFU counts determined by serial dilution. In this model, synergy was defined as being a significant difference between the combination treated group and the amalgamated group of single drug treated animals ([Fantin and Carbon, 1992]; [Pletzer et al., 2018]).
Statistical analysis was performed using GraphPad Prism 9.5.1. Bacterial CFU and abscess size data from in vivo experiments was analysed by Kruskal-Wallace test with Dunn’s correction for multiple comparisons. The data was considered significant when p-values were below 0.05 or 0.01 as indicated.

P. aeruginosa PAO1 = assay: Minimum inhibitory concentration, broth microdilution; assay type: cell-based, Pseudomonas aeruginosa; settings: for MIC: Pseudomonas aeruginosa, PAO1
Method: as §2
The minimum inhibitory concentration (MIC) of each antibiotic was determined using the broth microdilution method in 96-well plates. […] Briefly, antibiotics were two-fold serially diluted in MHB or TCM prior to adding 1 × 10^6 CFU mL^-1 bacteria. Plates were incubated at 37°C for 22-24 hours. The MIC was recorded as the lowest antibiotic concentration with no visible growth and the median value of at least three biological replicates reported.

[5] = LESB58, TCM (DMEM + 1% glucose + 5% FBS)
[6] = LESB58, read-out: MIC in MHB, MHB, 20-24 h
[7] = LESB58, read-out: MIC in TCM, TCM (DMEM + 1% glucose + 5% FBS), 20-24 h
[8] = LESB58, TCM (DMEM + 1% Glucose + 10% MHB)
[9] = Colistin, tigecycline and tobramycin groups, compared to the vehicle control

NC(=O)[C@@H]1CC[C@@H]2CN1C(=O)N2OS(=O)(=O)O [AVI, avibactam]
Fold decrease in CAZ MIC, drug combined with CAZ (P. aeruginosa LESB58-lux): 8
Fold decrease in other MIC, drug combined with CAZ (P. aeruginosa LESB58-lux): 4
FICI, drug combined with CAZ (P. aeruginosa LESB58-lux; FICI <= 0.5 indicates synergy): 0.38
MBC (P. aeruginosa LESB58 [1]; LESB58, MHB): > 125 µg/mL
MBC (P. aeruginosa LESB58 [1]; [5]): 62.5 µg/mL
Highest tolerated dose tested [2]: 12 mg/mL
MIC in MHB (P. aeruginosa LESB58 [3]; listed as Avibactam): no antimicrobial activity
MIC in MHB (P. aeruginosa LESB58 [3]; listed as avibactam): not observed
MIC (P. aeruginosa LESB58 [3]; [6]): > 125 µg/mL
MIC (P. aeruginosa LESB58 [3]; [7]): 31.2 µg/mL
MIC in TCM (P. aeruginosa LESB58 [3]; listed as Avibactam): significant antimicrobial activity
MIC in TCM (P. aeruginosa LESB58 [3]; listed as avibactam): had anti-pseudomonal activity

CC(C)(O/N=C(\C(=O)N[C@@H]1C(=O)N2C(C(=O)[O-])=C(C[n+]3ccccc3)CS[C@H]12)c1csc(N)n1)C(=O)O [CAZ, ceftazidime]
MBC (P. aeruginosa LESB58 [1]; LESB58, MHB): > 500 µg/mL
MBC (P. aeruginosa LESB58 [1]; LESB58, MHB + 5% FBS): > 500 µg/mL
MBC (P. aeruginosa LESB58 [1]; [8]): 500 µg/mL
MBC (P. aeruginosa LESB58 [1]; [5]): > 500 µg/mL
Highest tolerated dose tested [2]: 50 mg/mL
Toxic (visible skin irritation, inflammation, blood vessels, swelling) [2]: 100 mg/mL
CFU per abscess, Fold change (P. aeruginosa LESB58 [4]; Azithromycin group, compared to the vehicle control): -1.4
CFU per abscess, Geometric mean (P. aeruginosa LESB58 [4]; Azithromycin group, CAZ or CZA 50 mg/mL, AZM 6.25 mg/mL): 2.6 × 10^8 CFU per abscess
Area of dermoncecrosis, Mean (P. aeruginosa LESB58 [4]; Azithromycin group, 50 μL s.c. into infected area 1 h after infection, CAZ or CZA 50 mg/mL, AZM 6.25 mg/mL, vehicle citric acid in saline): 107.3 mm^2
Area of dermoncecrosis, Mean (P. aeruginosa LESB58 [4]; Colistin, tigecycline and tobramycin groups (shared vehicle, CAZ and CZA mice), 50 μL s.c. 1 h after infection, CAZ or CZA 50, CST 1.25, TGC 2.5, TOB 2 mg/mL, vehicle 0.9% saline): 85.3 mm^2
Area of dermoncecrosis, % reduction (P. aeruginosa LESB58 [4]; [9]): 9.2%
CFU per abscess, Fold change (P. aeruginosa LESB58 [4]; [9]): -1.8
CFU per abscess, Geometric mean (P. aeruginosa LESB58 [4]; Colistin, tigecycline and tobramycin groups): 1.3 × 10^8 CFU per abscess
Fold change TCM vs MHB (MIC) (P. aeruginosa PAO1; MIC in TCM vs MIC in MHB): 8
MIC (P. aeruginosa PAO1; read-out: MIC in MHB): 3.13 µg/mL (≈ 5.73 µM)
MIC (P. aeruginosa PAO1; read-out: MIC in TCM): 25 µg/mL (≈ 45.7 µM)
Fold increase MIC of CAZ or CZA (P. aeruginosa LESB58 [3]; MHB + 5% FBS compared to MHB): 8
Fold increase MIC of CAZ or CZA (P. aeruginosa LESB58 [3]; MHB + 5% FBS compared to MHB, listed as ceftazidime): eight
Fold change TCM vs MHB (MIC) (P. aeruginosa LESB58 [3]; MIC in TCM vs MIC in MHB): 4
MIC (P. aeruginosa LESB58 [3]; LESB58, MHB + 5% FBS): 250 µg/mL
MIC (P. aeruginosa LESB58 [3]; [8]): 62.5 µg/mL
MIC (P. aeruginosa LESB58 [3]; [6]): 31.2 µg/mL (≈ 57.2 µM)
MIC (P. aeruginosa LESB58 [3]; [7]): 125 µg/mL
Fold increase MIC of CAZ or CZA (P. aeruginosa LESB58 [3]; TCM (DMEM + 1% Glucose + 10% MHB) compared to MHB): 2
Fold increase MIC of CAZ or CZA (P. aeruginosa LESB58 [3]; TCM (DMEM + 1% Glucose + 10% MHB) compared to MHB, listed as ceftazidime): two
Fold increase MIC of CAZ or CZA (P. aeruginosa LESB58 [3]; TCM (DMEM + 1% glucose + 5% FBS) compared to MHB): 4
Fold increase MIC of CAZ or CZA (P. aeruginosa LESB58 [3]; TCM (DMEM + 1% glucose + 5% FBS) compared to MHB, listed as ceftazidime): four
